Consider 17 compounds from PubChem BioAssay AID588363 (Broad Institute, 2011).

As usually defined, the AC50 is the concentration at which the activity in the assay is half-maximal.

Calls of active or inactive are those of the source.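 The calls were made as follows: active = compounds lowering polarization with half-effect concentration at most ten times their top valid dose; inconclusive = flat fit with 30 to 70 percent drop, or poor fit; inactive = the rest.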

In this experiment the target is KSHV LANA C-terminal domain (residues 932-1162), DNA binding. Kind of experiment: KSHV LANA C-terminal domain DNA-binding blockers – biochemical, fluorescence polarization, MBP fusion, dry powder, dose response (AID 588363). The conditions noted are these: MBP-C-LANA/LBS DNA binding; for activity change, negative = inhibition: at 35 µM (top of the series). In general terms: In fluorescence polarisation assays a small probe gives low polarisation when free and higher when bound to something large.

With `O=C1/C(=C/c2ccco2)Oc2c1ccc(O)c2CN1CCCCC1`, the half-maximal activity concentration (AC50) is 8.54 µM. Take `COC(=O)c1ccccc1NC(=O)CCS(=O)(=O)c1ccc(Br)cc1`: the concentration at half-maximal activity (AC50) is 16.1 µM. Turning to `CC1=NN(c2cccc(C(=O)O)c2)C(=O)/C1=C\C=C\c1ccco1`, the AC50 was 31.2 µM. With `Clc1ccc(-c2nnc3sc(-c4ccc(Br)o4)nn23)cc1`, the “activity change, negative = inhibition” value is “inactive”. Consider `O=c1c(O)cccc2cc(O)c(O)c(O)c12`, for which the AC50 is 5.21 µM. Regarding `O=C(O)C1Nc2ccc(Br)cc2C2C=CCC12` (configuration not stated), the AC50 was 3.33 µM.

In the case of `CCC(=O)Oc1ccc2c(c1)O/C(=C\c1ccco1)C2=O`, the AC50 is 16.8 µM. Consider `CN(C)S(=O)(=O)c1cc(C(=O)NC2CCSc3ccccc32)ccc1Cl` (configuration not stated), for which the “activity change, negative = inhibition” value was “inactive”. For `CSc1ccc(/C=N/Nc2cccc(C(=O)O)c2)cc1`, the AC50 was 6.54 µM. Regarding `Nc1c(/C=C2\C=CC(=O)C(O)=C2)c(=O)nc2sc(CC(=O)N3CCCCC3)nn12`, the “activity change, negative = inhibition” value was “inactive”. With `O=C(O)C1Nc2c(O)cc(Cl)c([N+](=O)[O-])c2C2C=CCC12` (configuration not stated), the AC50 is 13.2 µM. As for `Nc1c(C(=O)Nc2ccccc2F)sc2nc(Cc3ccccc3)cc(C(F)(F)F)c12`, the concentration at half-maximal activity (AC50) was 23.1 µM. Turning to `O=C(O)CCNc1ccc(NCCC(=O)O)c2c1C(=O)c1ccccc1C2=O`, the AC50 is 24.4 µM. Regarding `O=C1CCCC(O)=C1N=Nc1ccc(C(=O)O)cc1`, the AC50 was 20.6 µM. With `CC1(C)[C@@H](O[C@H]2O[C@H](C(=O)O)[C@@H](O)[C@H](O)[C@H]2O[C@@H]2O[C@H](C(=O)O)[C@@H](O)[C@H](O)[C@H]2O)CC[C@]2(C)[C@H]3C(=O)C=C4[C@@H]5C[C@@](C)(C(=O)O)CC[C@]5(C)CC[C@@]4(C)[C@]3(C)CC[C@@H]12`, the “activity change, negative = inhibition” value was “inactive”. As for `O=C(O)c1cc(N2N=C(C(F)(F)F)/C(=C/C=C/c3ccco3)C2=O)ccc1Cl`, the AC50 was 6.05 µM. Take `CC(=O)c1ccc2c(c1)C1C=CCC1C(C(=O)O)N2` (configuration not stated): the AC50 was 4.46 µM.
